Reference: publication PMC8536644, “Enigmatic mechanism of the N-vinylpyrrolidone hepatocarcinogenicity in the rat” (Archives of Toxicology, 2021)

Tests used:
CYP2B [1] = assay: PROD assay, liver microsomes (CAR marker); type: in vivo, rat; conditions: male rats
Description: (§1) The alkoxyresorufin dealkylase (AROD) assays were based on the method by Burke et al. ([1994]).
(§2) The frozen livers and lungs of the NVP-treated male Wistar rats were thawed and washed with isotonic (0.9%) NaCl solution. The tissues were ice-cooled homogenized (1 g tissue: 3 mL 0.25 M saccharose in 1 mM disodium EDTA, pH 7.4) and centrifuged (9000 g, 15 min, 4 °C). The supernatant fraction was centrifuged (100 000 g, 60 min, 4 °C). The resulting supernatant fraction was used for the palmitoyl-CoA-oxidase assay described further down. The pellet was taken up in 150 mM aqueous KCl solution, recentrifuged (100 000 g, 60 min, 4 °C) and the pellet taken up in 1 mL/g liver or 0.5 mL/g lung resuspension buffer (1 mM GSH, 1 mM disodium EDTA, 4 mM MgCl2, 0.1 M KH2PO4, pH 7.5 and 4% glycerol). Aliquots were stored at − 80 °C.
(§3) For determination of the enzyme activities in triplicates, 85 µL master mix (100 mM TrisHCl pH 7.5, 2 mM 5’AMP, 5 mM G-6-P, 10 U G-6-P-DH, 10 mM Dicumarol, 10 mM MgCl2, either 2 µM EROD or 10 µM PROD or 5 µM BROD) was added to 10 µL microsomal fraction (1 mg protein/mL). The reaction was started by the addition of 5 µL 2 mM NADPH (dissolved in 100 mM TrisHCl pH 7.5) followed by incubation at 37 °C for 16 min. The activity was determined by measuring the increase of the fluorescence (excitation at 550 nm, emission at 585 nm) due to resorufin formation compared with resorufin standards, which had been prepared by dissolving tenfold concentrated solutions in DMSO, which were then diluted tenfold in 100 mM TrisHCl pH 7.5.

[2] = tested on: human lymphocyte cultures; parameters: method as in MAK [1994]; conditions: ref MAK [1994]; cited from earlier work
[3] = parameters: method as in ToxCast (comptox.epa.gov dashboard); conditions: ref ToxCast (comptox.epa.gov dashboard); cited from earlier work
CYP2B [4] = assay: PROD inhibition control in Aroclor 1254-induced rat liver microsomes; type: biochemical; conditions: for PROD enzyme activity: 0 µM control 78.9 ± 3.2
Description: as §3
As a method control the described AROD assay was performed with microsomal fractions derived from liver and lung of male Wistar rats which had been treated i.p. for 5 days with aroclor 1254 (500 mg/kg bw). These control assays were performed in presence of 1 μM, 10 μM or 100 μM NVP, respectively, in order to check for potential interactions of NVP with the substrate turnover in the AROD assay.

CYP2B [5] = assay: PROD assay, lung microsomes; type: in vivo, rat; conditions: 20 ppm
Description: as §1
as §2, with “Aliquots were stored at − 80 °C.” left out
as §3, with “The reaction was started by the addition of 5 µL 2 mM NADPH (dissolved in 100 mM TrisHCl pH 7.5) followed by incubation at 37 °C for 16 min.” left out

primary rat hepatocytes = assay: Gene expression analysis (Affymetrix) in cultivated rat hepatocytes; type: cell-based; conditions: 24 h; for Nrg1 upregulation / PDK4 upregulation / Atf3 upregulation: adj. p < 0.001
Description: Isolation and cultivation of primary rat hepatocytes was performed according to a published standard operation procedure (Godoy et al. [2013]) and Affymetrix gene array analysis as described in Grinberg et al. ([2018]). Briefly, male Wistar rats with a body weight of 220–300 g were purchased from Charles River (Sulzfeld, Germany). The animals had free access to food (sniff, Soest, Germany) and water and were kept under controlled temperature (18–26 °C), humidity (30–70%) and lighting (12 h light/dark circle). Prior to any experimental procedure, the animals were acclimated for a minimum of 6 days. This study was approved by the local committee for the welfare of experimental animals and was performed in accordance with national legislation. RNA was extracted from cultivated primary hepatocytes as described by Heise et al. ([2012]). Incubation of the cultivated rat hepatocytes with the test compounds was performed for 24 h. Rat hepatocytes were cultivated as sandwich cultures using 6well dishes. Three independent incubations with the test compound were performed. For Affymetrix gene chip analysis samples isolated from the 6-well dishes were stored in RNAprotect reagent from Qiagen until isolation of RNA. The RNA was quantified using a NanoDrop N-1000 spectrophotometer, and the integrity of RNA was confirmed with a standard sense automated gel electrophoresis system. Samples were used for transcriptional profiling only when their RNA quality indicator (RQI) number was > 8. First-strand cDNA was synthesized from 100 ng total RNA using an oligo-dT primer with an attached T7 promoter sequence, followed by the complementary second strand. The double-stranded cDNA molecule was used for in vitro transcription (IVT, standard Affymetrix procedure) using Genechip 3′ IVT Express Kit. During synthesis of the aRNA (amplified RNA, also commonly referred to as cRNA), a biotinylated nucleotide analogue was incorporated, which served as a label for the message. After amplification, aRNA was purified with magnetic beads and 15 µg of aRNA was fragmented with the fragmentation buffer as per the manufacturer’s instructions. Then 12.5 µg fragmented aRNA was hybridized with Affymetrix Rat Genome 230 2.0 Arrays. The chips were placed in a GeneChip Hybridization Oven-645 for 16 h at 60 rpm and 45 °C. For staining and washing, Affymetrix HWS kits were used on a Genechip Fluidics Station-450. For scanning, the Affymetrix GeneChip Scanner-3000-7G was used, and the image and quality control assessments were performed with Affymetrix GCOS software. All reagents and instruments were acquired from Affymetrix (Affymetrix, Santa Clara, CA, USA). The generated CEL files were used for further statistical analysis as described in Grinberg et al., 2018).

CYP1A = assay: EROD assay, lung microsomes of NVP-treated rats; type: in vivo, rat; conditions: after NVP treatment; below the LOD
Description: as §1
as §2, with “Aliquots were stored at − 80 °C.” left out
as §3, with “The reaction was started by the addition of 5 µL 2 mM NADPH (dissolved in 100 mM TrisHCl pH 7.5) followed by incubation at 37 °C for 16 min.” left out

Wistar rats = assay: Clinical observations and body weight during 5-day inhalation
Description: Eight-week-old male and female Wistar Crl:WI (Han) rats were obtained from Charles River Laboratories, Sulzfeld, Germany and acclimatized for 10 days. They were kept at 20–24 °C at a humidity of 30–70% in groups of six animals in polysulfone cages (Tecniplast) with free access to water and feed (10 mm pellets, Provimi Kliba, Kaiseraugst, Switzerland).
The animals were acclimatized to the whole-body exposure chambers for 2 days using the inhalation stream without the test substance. […] Animals were weighed before the 2-day acclimatation to the exposure chambers and subsequently before and after the exposure to the test substance. Animals were killed in the morning after the last exposure period to perform the examinations described further down.
For the inhalation experiments, two animals per cage (DK III, Becker & CO., Castrop-Rauxel, Germany) were kept in the glass–steel inhalation chambers (volume approximately 200 L) without access to feed and water. For each test dose a constant amount of NVP was pumped by continuous infusion pumps PHD Ultra (Havard Apparatus, Holliston) to an evaporator (Glasverdampfer BASF, Ludwigshafen, Germany; Thermostat Julabo Labortechnik, Seelbach, Germany). The thus generated vapor was combined with air and introduced into the exposure chamber.

Klebsiella pneumoniae = conditions: ref MAK [1994]; cited from earlier work
rat liver cells = conditions: rats, ref BASF [2011], cited from earlier work

C=CN1CCCC1=O [NVP, N-vinylpyrrolidone]
Liver microsomal PROD activity (CYP2B [1]; 5 ppm): 12.4 ± 1.9 pmol/min/mg protein | Liver microsomal PROD activity (CYP2B [1]; 10 ppm): 16.5 ± 4.3 pmol/min/mg protein | Liver microsomal PROD activity (CYP2B [1]; 20 ppm): 10.0 ± 2.8 pmol/min/mg protein | Chromosome aberration test result [2]: negative | Active in vitro assays in ToxCast [3]: 10 out of 847 | PROD enzyme activity (CYP2B [4]; 1 µM NVP): 88.6 ± 3.3 pmol/min/mg protein | PROD enzyme activity (CYP2B [4]; 10 µM NVP): 92.1 ± 6.0 pmol/min/mg protein | PROD enzyme activity (CYP2B [4]; 100 µM NVP): 94.6 ± 2.3 pmol/min/mg protein | Inhibition of PROD activity (CYP2B [4]; 1, 10 or 100 µM NVP): does not lead to inhibition | PROD activity in lung microsomes vs vehicle control (CYP2B [5]): not significantly different | Nrg1 upregulation (primary rat hepatocytes; 40 µM): 3.5 fold | PDK4 upregulation (primary rat hepatocytes; 40 µM): 3.5 fold | Atf3 upregulation (primary rat hepatocytes; 200 µM): 5.1 | Nrg1 upregulation (primary rat hepatocytes; 200 µM): 6.2 fold | PDK4 upregulation (primary rat hepatocytes; 200 µM): 5.9 fold | Atf3 upregulation (primary rat hepatocytes; 1000 µM): 7.1 | Nrg1 upregulation (primary rat hepatocytes; 1000 µM): 7.3 fold | PDK4 upregulation (primary rat hepatocytes; 1000 µM): 8.8 fold | Lowest concentration with expression changes (PCA) (primary rat hepatocytes; 8, 40, 200 and 1000 µM tested): 8 µM | EROD activity in lung microsomes (CYP1A): < 1.6 pmol/min/mg protein | Mortality during the 5-day exposure (Wistar rats; 5, 10, 20 ppm inhalation, male and female): None of the exposed rats died | Body weight increase (Wistar rats; 10 ppm, males, p ≤ 0.05): reduced | Slightly increased salivation, animals affected (Wistar rats; day 2 of exposure): 1 of 48 | Red nose effluent, animals affected (Wistar rats; days 4 or 5 of exposure): 5 of 48 | Klebsiella pneumoniae fluctuation (point mutation) test result (Klebsiella pneumoniae): negative | Concentration from which liver cell proliferation is significantly increased (rat liver cells; inhalation for 7 days): ≥ 1 ppm | Concentration giving a significant increase of liver cell proliferation (zones 3 and 2) (rat liver cells; inhalation for 28 days): 0.5 ppm
